Assay results from patent US8445636B2, “Antimicrobial and anticancer lipopeptides” (Yeda Research & Development Co. Ltd., priority 2003, dated 2013).
≈ marks a conversion by molar mass, not a printed value. Non-standard residues stand in square brackets, D forms with d. Residues, ends and D or L forms follow the SMILES beside them. *: point of attachment. Palmitoyl = CCCCCCCCCCCCCCCC(=O)*

How the values were obtained:
Type in all cases: cell-based
[1] = test system: Cryptococcus neoformans ATCC MYA-422; assay: microbe, parasite or virus in culture; settings: ATCC MYA-422, pH 7.4; for MIC: read-out: Minimal Inhibitory Concentration, Cyrptococcus neoformans (ATCC MYA-422)
[2] = test system: Aspergillus fumigatus ATCC 26430; assay: microbe, parasite or virus in culture; settings: ATCC 26430, pH 7.4; for MIC: read-out: Minimal Inhibitory Concentration, Aspergillus Fomigatus (ATCC 26430)
[3] = test system: Candida albicans ATCC 10231; assay: microbe, parasite or virus in culture; settings: ATCC 10231, pH 7.4; for MIC: read-out: Minimal Inhibitory Concentration, Candida Albicans (ATCC 10231)
Summary of the method: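 MIC = lowest concentration giving 100% growth inhibition by A620 after 24-48 h at 35 °C with agitation. Inoculum: 1×10^4 CFU/ml (pre-mix) in RPMI 1640/0.165 M MOPS; pH 7.4 by default, 5.5 where noted. Peptide as twofold dilution series in water.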

E. coli D21 = settings: D21, pH 7.4
[4] = test system: Staphylococcus aureus ATCC 6538P; settings: ATCC 6538, pH 7.4
Summary of the method: (§1)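 Lipopeptides were serially diluted 2-fold in water and combined with an equal volume of bacterial suspension (1×10^6 CFU/ml) in LB medium, normally at pH 7.4. Plates were incubated 18-20 h at 37° C, absorbance at 600 nm was measured, and the MIC was taken as the concentration fully inhibiting growth.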

[5] = test system: Pseudomonas aeruginosa ATCC 27853; settings: ATCC 27853, pH 7.4
Summary of the method: as §1

M. laleus = settings: Table 3, short lipopeptides; pH 7.4
Summary of the method: as §1

[6] = Cytotoxicity, XTT viability, non-cancer cells; settings: mouse, non-cancer cell line, 24 h incubation, read-out: LC50, 3T3
Method: Prostate cancer cell lines (CL1 and 22RV1; ATCC, USA) were grown in RPMI-1640 supplemented with 10% FCS (Biological Industries, Beit Haemek, Israel). N1H-3T3 mouse fibroblast cell line (ATCC, USA) was grown in DMEM supplemented with 10% bovine serum. To test cytotoxicity against the cancer cells, aliquots of medium containing 1×10^4 cells were distributed into a 96-well plate (Falcon). After one day, the media were replaced with 90 μl of fresh media and 10 μl of a solution containing different concentrations of the peptides. The plate was then incubated for 24 h before adding to each well 50 μl of XTT reaction solution (Biological Industries, Beit Haemek, Israel); viability was determined as previously described (Papo et al., (2003) J. Biol. Chem. 278:21018-23). The LC50 (concentration at which 50% of the cells die) for each peptide was obtained from the dose-dependent cell viability curves.

E. aerogenes ATCC 35029 = settings: ATCC 35029, pH 7.4
Summary of the method: as §1

E. coli ATCC 35218 = settings: ATCC 35218, pH 7.4
Summary of the method: as §1

SMILES	MIC [1] [µM]	MIC [2] [µM]	MIC [3] [µM]	Minimal Inhibitory Concentration, E. coli-D21 (E. coli D21) [µM]	Minimal Inhibitory Concentration, S. aureus ATCC 6538P [4] [µM]	Minimal Inhibitory Concentration, P. aeruginosa ATCC 27853 [5] [µM]	Minimal Inhibitory Concentration, M. laleus (M. laleus) [µM]	Minimal Inhibitory Concentration, C. neoformans ATCC MYA-422 [1] [µM]	CC50 at 24 h [6] [µM]	Minimal Inhibitory Concentration, A. fumigatus ATCC 26430 [2] [µM]	Minimal Inhibitory Concentration, C. albicans ATCC 10231 [3] [µM]	Minimal Inhibitory Concentration, E. aerogenes ATCC 35029 (E. aerogenes ATCC 35029) [µM]	Minimal Inhibitory Concentration, E. coli ATCC 35218 (E. coli ATCC 35218) [µM]
CCCCCCCCCCCCCCCC(=O)N[C@@H](CCCCN)C(=O)NCC(=O)NCC(=O)N[C@H](CCCCN)C(N)=O [PA-KGGK, Palmitoyl-Lys-Gly-Gly-D-Lys-NH2] (Palmitoyl-KGG[dK]-NH2)	1.56 (≈ 0.976 µg/mL)	6.25 (≈ 3.91 µg/mL)	12.5 (≈ 7.82 µg/mL)	25	50	12.5	3.12						
CCCCCCCCCCCCCCCC(=O)N[C@@H](CCCCN)C(=O)N[C@@H](CC(C)C)C(=O)N[C@H](CC(C)C)C(=O)N[C@@H](CCCCN)C(N)=O [PA-KLLK, Palmitoyl-Lys-Leu-D-Leu-Lys-NH2] (Palmitoyl-KL[dL]K-NH2)	1.56 (≈ 1.15 µg/mL)	3.125 (≈ 2.31 µg/mL)	6.25 (≈ 4.61 µg/mL)	100	3.12	100	3.12						
CC(C)C[C@@H](N)C(=O)N[C@@H](CCCCN)C(=O)N[C@@H](CCCCN)C(=O)N[C@H](CC(C)C)C(=O)N[C@H](CC(C)C)C(=O)N[C@@H](CCCCN)C(=O)N[C@@H](CCCCN)C(=O)N[C@H](CC(C)C)C(=O)N[C@H](CC(C)C)C(=O)N[C@@H](CCCCN)C(=O)N[C@@H](CCCCN)C(=O)N[C@H](CC(C)C)C(N)=O [[D]-L6K6, LKKLLKKLLKKL, reference compound] (H-[dL]KK[dL][dL]KK[dL][dL]KK[dL]-NH2; N-terminus assumed)					>50	>50		>50	> 100	>50	>50	>50	50
